Here are results for three molecules from patent US20100010100A1, “DERMATOLOGICAL COMPOSITIONS WITH ANTI-AGING AND SKIN EVEN-TONING PROPERTIES” (priority 2008, published 2010).

Molecules are shown by their SMILES.

The test system of this assay is MelanoDerm™ in vitro skin model (MEL-300B melanoderms). The experiment in a line: In vitro skin model test (MelanoDerm skin-lightening, digital image quantification). The class given is cell-based. The conditions noted are these: for pixel density / lightening: 14 days; for pixel density: pixel content of untreated set at 1.00; for lightening: vs untreated. How it is done: The skin-lightening effect was validated on the in vitro skin model, the MelanoDerm™ carried out by MatTek using MEL-300B melanoderms. This model is very similar in structure and function to the natural skin and has the cell types relevant in the epidermis including the melanocytes, which are responsible for the synthesis of the main pigment melanin. Further information can be found, for example, in http://www.mattek.com/pages/in_vitro_basics. The study was carried out over a period of 14 days at two concentrations, 10 μM and 60 μM. 1% Kojic acid was the positive standard and untreated as negative control.
Digital image quantification was achieved by subtracting a standard background value from the pixel content of regions of identical size. The pixel content of untreated cells was set at 1.00. Treatment with topical 1% kojic acid as a positive control gave pixel density of 0.96 or 4% lightening. Treatment with Duroquinone gave pixel density of 0.82 or 18% lightening at a concentration of 10 μM and 0.60 or 40% lightening at a concentration of 60 μM. Treatment with 2,5,6-trimethyl-3-(4-(trifluoromethyl)phenyl)cyclohexa-2,5-diene-1,4-dione gave pixel density of […] or 34% lightening at a concentration of 60 μM.

For the molecule `CC1=C(C)C(=O)C(c2ccc(C(F)(F)F)cc2)=C(C)C1=O` [2,5,6-trimethyl-3-(4-(trifluoromethyl)phenyl)cyclohexa-2,5-diene-1,4-dione], the “effectiveness relative to kojic acid positive standard” value (60 μM vs 1% kojic acid) is given as “ten times as effective”. For the setting “60 μM”, the pixel density was determined as 0.69 and the lightening turned out to be 34%.

As to `O=c1cc(CO)occ1O` [kojic acid, reference compound], where the note is “topical 1% (positive control)”, the pixel density is given as 0.96 and the lightening amounted to 4%.

Take `CC1=C(C)C(=O)C(C)=C(C)C1=O` [Duroquinone, 2,3,5,6-tetramethylcyclohexa-2,5-diene-1,4-dione]: the “effectiveness relative to kojic acid positive standard” value is “four and a half times as effective” (10 μM vs 1% kojic acid); “ten times as effective” (60 μM vs 1% kojic acid). Besides, the pixel density is, setting by setting: (10 μM) 0.82; (60 μM) 0.60. The lightening is listed as 18% (10 μM) and 40% (60 μM).
